We go through 14 substances from patent publication US11286299B2, “Peptides selective for Bcl-2 family proteins” (Massachusetts Institute of Technology, priority 2018, dated 2022).

Like-named read-outs stand apart in the source and are kept apart here.

Experiment [1] has as its target T1, Bcl-xL (Homo sapiens, UniProt Q07817). Put plainly: Competition fluorescence polarization (anisotropy) binding assay. Also on record: human Bcl-xL residues 1-209; made in house; host or cells: E. coli. As to the method:
(§1) Fluorescence polarization competition binding assay Competition fluorescence polarization experiments were performed as described by Jenson et al. […]. Experiments were performed in triplicate, using the same protein and peptide preparations, and data were fit as described by Foight et al. (20) to a complete competitive binding model (47).
A general note: Fluorescence polarisation rises when a labelled molecule tumbles more slowly, as on binding a larger partner.

For experiment [2], the target named is T2, Bfl-1 (Homo sapiens, UniProt Q16548).
T2 sequence (Q16548 1-151): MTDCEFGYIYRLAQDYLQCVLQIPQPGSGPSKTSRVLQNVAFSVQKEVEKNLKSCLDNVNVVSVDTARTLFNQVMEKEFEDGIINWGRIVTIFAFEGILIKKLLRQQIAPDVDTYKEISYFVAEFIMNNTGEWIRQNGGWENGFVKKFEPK
Described as above. Also on record: Bfl-1 residues 1-151; made in house; host or cells: E. coli. As to the method: as §1

The target of experiment [3] is T3, Mcl-1 (Homo sapiens, UniProt Q07820). Described as above. Details: Mcl-1 residues 172-327; made in house; host or cells: E. coli. As for the experimental part: as §1
T3 sequence (Q07820 172-327): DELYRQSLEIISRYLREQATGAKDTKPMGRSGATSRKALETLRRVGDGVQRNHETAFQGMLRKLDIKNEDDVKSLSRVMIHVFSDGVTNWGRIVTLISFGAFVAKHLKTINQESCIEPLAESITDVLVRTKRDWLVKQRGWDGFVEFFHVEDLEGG
For experiment [4], the target named is T2, Bfl-1. The settings on record: cited from earlier work.
Experiment [5] deals with T3, Mcl-1. Particulars: cited from earlier work; for Ki: Table X3, previously reported selective peptides, read-out: reported affinity, Mcl-1.
Experiment [6] deals with T1, Bcl-xL. The settings on record: cited from earlier work; for Ki: Table X3, previously reported selective peptides, read-out: reported affinity, Bcl-xL.
Experiment [7] deals with B-ALL cell lines with engineered dependencies on human anti-apoptotic genes (Bfl-1, Mcl-1, Bcl-xL, Bcl-2). The experiment is described as follows: Cellular BH3 profiling assay (mitochondrial depolarization, JC-1, permeabilized cells). Format: cell-based, murine. The settings on record: for pro-apoptotic response in dependent cell lines: permeabilized cells, Bfl-1 vs Mcl-1 or Bcl-xL dependent cell lines. As to the method:
Cell Culture We used murine p185+ Arf^−/^− B-ALL suspension cell lines with engineered dependencies on the human anti-apoptotic genes (Bfl-1, Mcl-1, Bcl-xL), along with an apoptosis-resistant (Bax^−/−/Bak^−/−) control(51). Cells were grown in Roswell Park Memorial Institute (RPMI) 1640 medium supplemented with 10% (v/v) fetal bovine serum, 2 mM L-glutamine, 100 U/mL penicillin, […] streptomycin, 0.1 mM minimal essential medium nonessential amino acids, 25 mM HEPES and […] β-mercaptoethanol. Cell line authentication was performed by short tandem repeat (STR) analysis. Cell were monitored for mycoplasma contamination using the MycoAlert® Mycoplasma Detection Kit (Lonza, Rockland, Mass., USA).
Cellular BH3 profiling assay BH3 profiling was adapted from the protocol of Ryan and Letai (32). Peptides were diluted at the desired concentrations in MEB buffer (150 mM Mannitol, 10 mM HEPES-KOH pH 7.5, 50 mM KCl, 0.02 mM EGTA, 0.02 mM EDTA, 0.1% BSA and 5 mM succinate) containing […] oligomycin, […] digitonin, […] and 10 mM 2-mercaptoethanol in 384-well plates. […] Fluorescence emission was measured every 5 min for 3 hr at […] with 525 nm excitation on a Tecan Spark 10M. To produce percent depolarization, the area under the resulting curve was calculated and normalized to the assay controls. […]
Peptides were titrated by serial dilution in MEB buffer (150 mM Mannitol, 10 mM HEPES-KOH, pH 7.5, 50 mM KCl, 0.02 mM EGTA, 0.02 mM EDTA, 0.1% BSA and 5 mM Succinate) containing […] oligomycin, […] digitonin, […] and 10 mM 2-mercaptoethanol in 384-well plates. […] Fluorescence emission was measured every 5 min for 3 h at […] with 525 nm excitation on a Tecan Spark 10M. To produce percent depolarization, the area under the resulting curve was calculated and normalized to the assay controls. […]
As depicted in FIGS. 7-11, permeabilized cells were contacted with increasing doses of BH3 peptides, ad mitochondria outer membrane permeabilization (MOMP) was monitored using a voltage-sensitive dye (JC-1). […]

Experiment [8] deals with T2, Bfl-1. The experiment is described as follows: Yeast cell-surface display binding (FACS titration). Details: Bfl-1 residues 1-151; made in house; host or cells: E. coli. The settings on record: for binding to Bfl-1 in yeast display: SORTCERY designs; for reported affinity, Bfl-1: Table X3, this study, Bfl-1 specific peptides, cell-surface measurement, highest concentration tested 1000 nM. The text has this:
Protein constructs Anti-apoptotic protein constructs used in this work correspond to human Bcl-xL residues 1-209, Mcl-1 residues 172-327 and Bfl-1 residues 1-151, expressed in E. coli and purified as described by Dutta et al. (45).
Cells were filtered and washed 2× in chilled BSS before resuspending the labeled cells in BSS and using a BD FACSAria flow cytometer or a BD FACSCanto and FACSDiva software for cell sorting or analysis.
Crystals were flash frozen in liquid nitrogen.

[9] abbreviates: Table X2, 50 nM protein, 25 nM fluoresceinated Bim BH3, SD of three replicates, read-out: Ki, Bcl-xL.
Setting [10] is: Table X2, 50 nM protein, 25 nM fluoresceinated Bim BH3, SD of three replicates, read-out: Ki, Bfl-1.
Setting [11] is: Table X3, this study, same values as Table X2, read-out: reported affinity, Bfl-1.
Where [12] appears, read: Table X2, 50 nM protein, 25 nM fluoresceinated Bim BH3, SD of three replicates, read-out: Ki, Mcl-1.
The mark [13] stands for this setting: Table X3, this study, same values as Table X2, read-out: reported affinity, Bcl-xL.
The mark [14] stands for this setting: fluoresceinated Bim BH3 competitor, as reported by Dutta et al. 2013.
Setting [15] is: Table X3, this study, same values as Table X2, read-out: reported affinity, Mcl-1.

T1 sequence (Q07817 1-209): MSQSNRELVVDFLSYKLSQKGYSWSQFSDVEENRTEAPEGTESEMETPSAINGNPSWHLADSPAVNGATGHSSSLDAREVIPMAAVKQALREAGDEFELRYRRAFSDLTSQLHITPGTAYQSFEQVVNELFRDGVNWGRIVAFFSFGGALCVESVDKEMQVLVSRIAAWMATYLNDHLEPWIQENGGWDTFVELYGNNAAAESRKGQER

With “Ac-RRVDEIAQILRRIGDNVTTYIER-NH2 [srt.MF06]”, the Ki on Bcl-xL [1] (setting [9]) was above 4 µM.
Consider Ac-RSQYEVIQELIRIGDIVLAYFER-NH2 [srt.M9], for which the Ki on Bfl-1 [2] (setting [10]) was above 4 µM; at Bfl-1 [2] (setting [11]), above 4 µM; on Mcl-1 [3] (setting [12]), 0.0006 ± 0.0003 µM; on Bcl-xL [1] (setting [9]) it was above 4 µM; on Bcl-xL [1] (setting [13]), above 4 µM.
On to “(fl)IWIAQELRRIGDEFNAYY [Fluoresceinated Bim]”, for which the Kd (as a rule, the free concentration of one partner at which half of the binding sites on the other are occupied at equilibrium, for simple one-to-one binding) with Bfl-1 [4] (setting [14]) was 0.004 ± 0.001 µM; in the experiment with Mcl-1 [5] (fluoresceinated Bim BH3 competitor, as reported by Dutta et al. 2013, read-out: Kd, Mcl-1) it was 0.0008 ± 0.0004 µM; in the experiment with Bcl-xL [6] (setting [14]) it was 0.006 ± 0.001 µM.
Turning to Ac-QPLIWFGAQLRRGADEFAAQRER-NH2 [srt.X7], the Ki at Bfl-1 [2] (setting [10]) is above 4 µM; at Bfl-1 [2] (setting [11]), above 4 µM; at Mcl-1 [3] (setting [12]) it was above 4 µM; at Mcl-1 [3] (setting [15]), above 4 µM; on Bcl-xL [1] (setting [9]), 0.0037 ± 0.0003 µM.
As to Ac-QRVVHIAAGLRRTGDQLEAYGER-NH2 [srt.F4], the “pro-apoptotic response in dependent cell lines” value in experiment [7] is “selectively induced a pro-apoptotic response in Bfl-1 dependent cell lines, but not in Mcl-1 or Bcl-xL dependent cell lines”. In addition, at Bfl-1 [2], the “binding to Bfl-1 in the FP competition assay” value was “undetectably”. In addition, at Bfl-1 [8], the “binding to Bfl-1 in yeast display” value is “bound Bfl-1 with high affinity in yeast display” and the “reported affinity, Bfl-1” value turned out to be 14 ± 2 nM.
In the case of “Ac-QWLRDVVAELARIADEFHAQYER-NH2 [srt.MX05]”, the Ki on Bfl-1 [2] (setting [10]) was above 4 µM.
On to “Ac-QWLRWVIAELIRIADEFHAQYER-NH2 [srt.MX01]”, for which, on Bfl-1 [2] (setting [10]), the Ki was above 4 µM.
For the substance Ac-RSELEVVQELVRIGDIVVAYFER-NH2 [srt.M1], the Ki at Bfl-1 [2] (setting [10]), at Bfl-1 [2] (setting [11]), on Bcl-xL [1] (setting [9]) and on Bcl-xL [1] (setting [13]) was above 4 µM each time.
For QWVREIAAGLRLAADNVNAQLER [FS1], the Ki at Bfl-1 [4] (previously described peptide (ref 25), read-out: Ki for Bfl-1) was 0.015 µM; at Mcl-1 [5], above 5 µM; at Bcl-xL [6] it was 2.4 ± 0.4 µM.
As for “Ac-RRVVQIAAGLRRAGDQLEKYGER-NH2 [srt.F10]”, in experiment [7], the “inhibition of Bfl-1 in the cellular assay relative to peptide FS1” value is reported as “at least as potently as a previously described peptide” and the “pro-apoptotic response in dependent cell lines” value is given as “selectively induced a pro-apoptotic response in Bfl-1 dependent cell lines, but not in Mcl-1 or Bcl-xL dependent cell lines”. In addition, on Bfl-1 [2], the “binding to Bfl-1 in the FP competition assay” value was “weakly”. Besides, at Bfl-1 [8], the “binding to Bfl-1 in yeast display” value is listed as “bound Bfl-1 with high affinity in yeast display” and the “reported affinity, Bfl-1” value was 3.2 ± 0.4 nM.
In the case of QWVREIAAGLRRAADDVNAQVER [FS2], the Ki on Bfl-1 [4] (Table X3, previously reported selective peptides, read-out: reported affinity, Bfl-1) is 0.021 ± 0.006 µM; at Mcl-1 [5] it was 3.2 ± 0.3 µM; on Bcl-xL [6], above 5 µM. Besides, the Kd on Mcl-1 [5] (read-out: Kd for Mcl-1) was above 3 µM.
As for “Ac-QRIIWIAAELRRAADELDKQIER-NH2 [srt.XF02]”, at Mcl-1 [3] (setting [12]), the Ki is above 4 µM.
Consider “Ac-QRIIWIAAELRRAADQLDAQIER-NH2 [srt.XF03]”, for which the Ki on Mcl-1 [3] (setting [12]) is above 4 µM.
Consider Ac-QTLIWYGASLRRYADEFAKQRER-NH2 [srt.X1], for which the Ki is above 4 µM on Bfl-1 [2] (setting [10]); above 4 µM at Bfl-1 [2] (setting [11]); above 4 µM on Mcl-1 [3] (setting [12]); above 4 µM on Mcl-1 [3] (setting [15]); 0.00132 ± 0.00018 µM at Bcl-xL [1] (setting [9]).
